Read-outs that look alike come from different tables or passages of the source.
Assay: Single-dose pharmacokinetics study in rats (BBR•HCl, EPA-EE, BBR + EPA-EE; 3 rats per group)
Assay type: in vivo
Settings: male, Sprague-Dawley, rat, SD rats, single oral administration, plasma
Experimental: In the single-dose pharmacokinetics study in rats, after 7-day acclimation, healthy male Sprague-Dawley (SD) rats with the body weight of 210-250 g were randomized into four groups as follows (3 rats per group).
The rats in each group were orally treated with the suspensions of the corresponding testing articles indicated above in 0.5% gum tragacanth respectively. Blood samples of the test animals were collected pre-dose and at the time points of 15 min, 30 min, 1 h, 1.5 h, 2 h, 4 h, 8 h, 24 h post-dose. The collected blood samples (approximately 400 μL) were placed into tubes containing heparin sodium and centrifuged at 8,000 rpm for 6 minutes at 4° C. to separate plasma. The obtained plasma from each sample was stored at −80° C. until being analyzed.
Plasma concentrations of BBR and EPA were determined using tandem mass spectrometry (LC-MS/MS) analysis. A non-compartmental module of WinNonlin® Professional 5.2 (Pharsight; St. Louis MO), was used to calculate PK parameters. The abbreviation AUC(0-t) represents area under the curve from the time of dosing to the time of the last observation, the AUC(0-∞) represents area under the curve from the time of dosing to infinity, and the Cmax represents maximum concentration detected.

AUC(0-t) (EPA-EE 45.48 mg/Kg (alone or + BBR•HCl 51.13 mg/Kg), read-out: EPA (Free acid) AUC(0-t))	AUC(0-inf) (EPA-EE 45.48 mg/Kg (alone or + BBR•HCl 51.13 mg/Kg), read-out: EPA (Free acid) AUC(0-∞))	Cmax (EPA-EE 45.48 mg/Kg (alone or + BBR•HCl 51.13 mg/Kg), read-out: EPA (Free acid) Cmax)	AUC(0-t) (BBR•HCl 51.13 mg/Kg (alone or + EPA-EE 45.48 mg/Kg), read-out: BBR AUC(0-t))	AUC(0-inf) (BBR•HCl 51.13 mg/Kg (alone or + EPA-EE 45.48 mg/Kg), read-out: BBR AUC(0-∞))	Cmax (BBR•HCl 51.13 mg/Kg (alone or + EPA-EE 45.48 mg/Kg), read-out: BBR Cmax)	Compound
3750 ng·h/mL	6600 ng·h/mL	629 ng/mL				CCC=CCC=CCC=CCC=CCC=CCCCC(=O)O (stereo in doubt) [EPA, (5Z,8Z,11Z,14Z,17Z)-5,8,11,14,17-icosapentaenoic acid]
			7.46 ng·h/mL	8.84 ng·h/mL	0.95 ng/mL	COc1ccc2cc3[n+](cc2c1OC)CCc1cc2c(cc1-3)OCO2 [BBR, 5,6-dihydro-9,10-dimethoxybenzo[g]-1,3-benzodioxolo[5,6-a]quinolizinium]

Source: patent publication US11883539B2, “Pharmaceutical compositions of berberine with EPA and DHA, and methods thereof” (SHENZHEN HIGHTIDE BIOPHARMACEUTICAL, LTD., priority 2015, dated 2024)
